What was measured:
[1] = 298.15 K; 101.33 kPa; Liquid; Vibrating tube method
[2] = excess molar enthalpy (molar enthalpy of mixing); xn = mol fraction of the nth substance listed; conditions: 298.15 K, 101 kPa, Liquid, Flow calorimetry

CN(C)C=O [dimethylformamide]
Conditions | mass density [kg/m3]
[1] | 943.78

CCCNCCC [dipropylamine] + CN(C)C=O
[2]
Conditions | excess molar enthalpy [kcal/mol]
x2 = 0.0358 | 0.021
x2 = 0.1002 | 0.0576
x2 = 0.1512 | 0.0839
x2 = 0.1984 | 0.107
x2 = 0.2504 | 0.126
x2 = 0.3016 | 0.142
x2 = 0.3483 | 0.157
x2 = 0.4005 | 0.166
x2 = 0.4495 | 0.176
x2 = 0.5005 | 0.179
x2 = 0.5505 | 0.18
x2 = 0.6012 | 0.178
x2 = 0.6587 | 0.169
x2 = 0.6997 | 0.161
x2 = 0.7518 | 0.147
x2 = 0.7983 | 0.13
x2 = 0.8485 | 0.105
x2 = 0.8991 | 0.076
x2 = 0.9504 | 0.0406

CCCCNCCCC [dibutylamine]
Conditions | mass density [kg/m3]
[1] | 755.7

CCCCCCN [1-hexanamine] + CN(C)C=O
[2]
Conditions | excess molar enthalpy [kcal/mol]
x2 = 0.0514 | 0.0282
x2 = 0.1007 | 0.0523
x2 = 0.1516 | 0.076
x2 = 0.2009 | 0.0942
x2 = 0.2522 | 0.11
x2 = 0.3006 | 0.127
x2 = 0.3519 | 0.14
x2 = 0.4007 | 0.148
x2 = 0.4518 | 0.155
x2 = 0.5003 | 0.158
x2 = 0.5505 | 0.158
x2 = 0.5982 | 0.155
x2 = 0.6507 | 0.147
x2 = 0.7002 | 0.136
x2 = 0.7503 | 0.122
x2 = 0.8005 | 0.105
x2 = 0.8506 | 0.0846
x2 = 0.8995 | 0.0588
x2 = 0.9502 | 0.0308

CCCNCCC [dipropylamine] + CC(=O)N(C)C
[2]
Conditions | excess molar enthalpy [kcal/mol]
x2 = 0.0597 | 0.0234
x2 = 0.0996 | 0.0397
x2 = 0.1496 | 0.0562
x2 = 0.2011 | 0.0717
x2 = 0.2497 | 0.0856
x2 = 0.3009 | 0.0954
x2 = 0.3462 | 0.104
x2 = 0.4062 | 0.114
x2 = 0.4491 | 0.118
x2 = 0.5035 | 0.123
x2 = 0.5497 | 0.124
x2 = 0.5972 | 0.122
x2 = 0.6495 | 0.118
x2 = 0.6975 | 0.113
x2 = 0.7478 | 0.104
x2 = 0.8009 | 0.092
x2 = 0.8504 | 0.076
x2 = 0.8989 | 0.0571
x2 = 0.9368 | 0.0373
x2 = 0.9507 | 0.0301

CCCCCCN [1-hexanamine]
Conditions | mass density [kg/m3]
[1] | 760.16

CCCNCCC [dipropylamine]
Conditions | mass density [kg/m3]
[1] | 733.37

CC(=O)N(C)C [N,N-dimethylethanamide]
Conditions | mass density [kg/m3]
[1] | 936.14

CCCCN [1-butanamine]
Conditions | mass density [kg/m3]
[1] | 732.18

CCCCNCCCC [dibutylamine] + CN(C)C=O
[2]
Conditions | excess molar enthalpy [kcal/mol]
x2 = 0.0491 | 0.0449
x2 = 0.1014 | 0.0923
x2 = 0.1488 | 0.13
x2 = 0.2006 | 0.163
x2 = 0.2482 | 0.187
x2 = 0.3006 | 0.21
x2 = 0.351 | 0.228
x2 = 0.4021 | 0.247
x2 = 0.4497 | 0.259
x2 = 0.4982 | 0.266
x2 = 0.5505 | 0.267
x2 = 0.599 | 0.262
x2 = 0.65 | 0.253
x2 = 0.6997 | 0.239
x2 = 0.7506 | 0.22
x2 = 0.7994 | 0.195
x2 = 0.8503 | 0.16
x2 = 0.9 | 0.117
x2 = 0.9501 | 0.0645

CCCCNCCCC [dibutylamine] + CC(=O)N(C)C
[2]
Conditions | excess molar enthalpy [kcal/mol]
x2 = 0.0499 | 0.0359
x2 = 0.0976 | 0.066
x2 = 0.151 | 0.0968
x2 = 0.1969 | 0.12
x2 = 0.2472 | 0.141
x2 = 0.3002 | 0.161
x2 = 0.3526 | 0.175
x2 = 0.3983 | 0.185
x2 = 0.4472 | 0.193
x2 = 0.5007 | 0.199
x2 = 0.5507 | 0.199
x2 = 0.6007 | 0.197
x2 = 0.6477 | 0.192
x2 = 0.6968 | 0.181
x2 = 0.7481 | 0.167
x2 = 0.8004 | 0.148
x2 = 0.8512 | 0.121
x2 = 0.9019 | 0.0887
x2 = 0.9507 | 0.0485

CCCCCCN [1-hexanamine] + CC(=O)N(C)C
[2]
Conditions | excess molar enthalpy [kcal/mol]
x2 = 0.0509 | 0.017
x2 = 0.1005 | 0.0337
x2 = 0.1507 | 0.0468
x2 = 0.1994 | 0.0583
x2 = 0.2488 | 0.0705
x2 = 0.3018 | 0.0808
x2 = 0.3484 | 0.0882
x2 = 0.398 | 0.0961
x2 = 0.4502 | 0.1
x2 = 0.5006 | 0.101
x2 = 0.5493 | 0.101
x2 = 0.6002 | 0.0994
x2 = 0.6492 | 0.0958
x2 = 0.7001 | 0.0896
x2 = 0.7491 | 0.0815
x2 = 0.7996 | 0.0707
x2 = 0.8513 | 0.0569
x2 = 0.9008 | 0.0409
x2 = 0.9503 | 0.0217

CCCCN [1-butanamine] + CN(C)C=O
[2]
Conditions | excess molar enthalpy [kcal/mol]
x2 = 0.051 | 0.0213
x2 = 0.1009 | 0.0397
x2 = 0.1496 | 0.054
x2 = 0.1703 | 0.059
x2 = 0.2005 | 0.0667
x2 = 0.2498 | 0.0765
x2 = 0.3007 | 0.0841
x2 = 0.3496 | 0.0891
x2 = 0.4008 | 0.0935
x2 = 0.4508 | 0.0939
x2 = 0.5008 | 0.0918
x2 = 0.5463 | 0.0894
x2 = 0.6008 | 0.0848
x2 = 0.6463 | 0.0779
x2 = 0.7011 | 0.0691
x2 = 0.7559 | 0.0586
x2 = 0.8005 | 0.0497
x2 = 0.8495 | 0.0378
x2 = 0.9003 | 0.0253
x2 = 0.9519 | 0.0131

CCCCN [1-butanamine] + CC(=O)N(C)C
[2]
Conditions | excess molar enthalpy [kcal/mol]
x2 = 0.0498 | 0.0115
x2 = 0.0992 | 0.0213
x2 = 0.1518 | 0.0294
x2 = 0.1985 | 0.0363
x2 = 0.2512 | 0.0394
x2 = 0.3004 | 0.0452
x2 = 0.3493 | 0.0483
x2 = 0.4015 | 0.0495
x2 = 0.4508 | 0.05
x2 = 0.5005 | 0.0497
x2 = 0.5509 | 0.048
x2 = 0.6005 | 0.0466
x2 = 0.7008 | 0.0382
x2 = 0.7995 | 0.0287
x2 = 0.8502 | 0.0225
x2 = 0.9002 | 0.0153
x2 = 0.9594 | 0.00645

— the NIST ThermoML archive (doi:10.1016/j.fluid.2019.112283)
